{"source": "patent US7119064B2", "about": "“Use of colostrinin, constituent peptides thereof, and analogs thereof as modulators of intracellular signaling molecules” (Board of Regents, The University of Texas System, priority 1999, dated 2006)", "format_in_all_cases": "cell-based", "key": {"[1]": {"test_system": "intracellular GSH in PC12 cells", "test": "Intracellular glutathione (GSH) level, o-phthalaldehyde fluorimetry", "protocol": "Measurement of glutathione (GSH): In brief, PC12 cells were mock- or pre-treated with CLN or lactalbumin hydrolysate (LAH), both in 10 μg/ml concentration and then exposed to 4HNE (25 nM). PBS-washed (twice) cells were then extracted with 25% (w/v) metaphosphoric acid solution containing 5 mM EDTA. After ultracentrifugation (105,000 g for 30 min), 100 μl of 100 mM phosphate solution (pH 8.0) containing 5 mM EDTA and 10 μl of o-phthalaldehyde OPA(OPD; Molecular Probes, Inc.) was added to the supernatant, and the fluorescence intensity at 420 nm determined with excitation set at 350 nm (A. P. Senft et al., Anal Biochem., 280:80–86 (2000)).\nTo investigate whether the anti-oxidant effect of CLN was due to protection of intracellular GSH levels, PC12 cells were pre-treated (with CLN or LAH) and exposed to 4HNE, as described above, and changes in GSH levels were determined fluorimetrically. […] OPA (o-phthalaldehyde or phthalic dicarboxaldehyde) is highly fluorescent when it is conjugated to GSH (A.P. Senft et al., Anal Biochem., 280:80–86 (2000))."}, "p53": {"test_system": "p53", "test": "4HNE-induced activation of p53, Western blot", "conditions": "4HNE-treated PC12 cells", "protocol": "(§1) Western blot analysis: PC12 cells were plated at 7×10^6 cells/T75 flask. After exposure to 4HNE, colostrinin or their combination, cells were collected and lysed in 50 millimolar (mM) Tris, 5 mM EDTA, 150 mM NaCl, 0.5% NP-40, 10% glycerol and protease inhibitor cocktail (supplemented with 1 mM Na3VO4, 2 mM EDTA, 1 mM phenylmethylsulfonyl fluoride). Lysates were centrifuged at 14,000g for 10 minutes (min) (4° C.) and 40 μg of protein was fractionated on a 10% SDS-polyaciylamide gel and transferred to protein-optimized membranes (Amersham, Inc.). p53 was detected using specific antibody (DO1; Santa Cruz Biotechnology, Inc.) at a dilution of 1:300. Adducts were detected using an antibody to HNE-protein adducts (Phanningen, Inc.) at a dilution of 1:500. The anti-phospho-JNK antibody (New England Biolabs, Inc., Beverly, Mass.) was raised against a synthetic phosphopeptide (SFMMT*PY*VVTRYYR) corresponding to residues 179–193 of JNK. For visualization of primary antibody binding, all blots were incubated with horseradish peroxidase-conjugated secondary antibody (Amersham, Inc.) at a dilution of 1:2000, followed by chemiluminescence detection (Amersham, Inc.) and autoradiography.\nWhether CLN could modulate p53 levels after 4HNE exposure was also investigated."}, "JNK": {"test_system": "JNK", "test": "4HNE-induced JNK activation, Western blot with anti-phospho-(Thr-183/Tyr-185) JNK antibody", "conditions": "PC12 cells", "protocol": "as §1, with “For visualization of primary antibody binding, all blots were incubated with horseradish peroxidase-conjugated secondary antibody (Amersham, Inc.) at a dilution of 1:2000, followed by chemiluminescence detection (Amersham, Inc.) and autoradiography.” left out\nThe effect of CLN on 4HNE-induced activation of JNK in PC12 cells was investigated. The activation of JNK was monitored by Western blot analysis using a highly specific anti-phospho- (Thr-183/Tyr-185) JNK antibody (Materials and Methods)."}, "PC12 cells": {"test_system": "PC12 cells", "test": "4HNE-induced apoptosis, annexin V-PE / 7-AAD flow cytometry", "protocol": "FIG. 8. […] PC12 cells were treated with CLN (1 μg per ml) for 15 min and 4HNE (100 nM) was added. Twenty four hours later, cells were harvested and stained with annexin V-PE and 7-AAD. 1, solvent alone; 2, 100 nM 4HNE; 3, TROLOX (vitamin E) 4, col (internal control)+100 nM 4HNE; 5, CLN alone (1 μg per ml); 6, CLN (1 μg per ml)+100 nM 4HNE.\nApoptosis is a specific mode of cell death recognized by a characteristic pattern of morphological, biochemical, and molecular changes. Currently the hallmark of apoptosis in vitro is DNA fragmentation and changes in plasma membrane reorganization that allows for the surface expression of phosphatidyl-D-serine and result in increased membrane permeability. The protection of cells against 4HNE by CLN using increased permeability and cell membrane expression of phosphatidyl-D-serine was investigated.\nCells were simultaneously labeled with fluorochrome-conjugated annexin V-PE (detecting PS asymmetry in the plasma membrane, an early marker of apoptosis), 7-aminoactinomycin D (7-AAD) (detecting increased membrane permeability associated with both apoptosis and necrosis). A dual laser flow cytometer (either a Becton-Dickinson FACScan) was used for the simultaneous detection of the PE-conjugated annexin V (which is excited at […]), 7-AAD (excited at 488 nm and emitting at 670 nm). […]"}, "[2]": {"test_system": "4HNE-protein adducts in PC12 cells", "test": "4HNE-protein adduct formation, fluorescent microscopy (immunocytochemistry)", "conditions": "4HNE 25 nM or H2O2 100 μM alone", "text": "Cell cultures: Pheochromocytoma (PC12) cells were provided by Dr. Regino Perez-Polo (University of Texas Medical Branch, Department of Human Biological Chemistry and Genetics) and maintained in EMEM supplemented with 10% fetal bovine serum, penicillin (100 IU/mI) and streptomycin (100 micrograms per milliliter (μg/ml)). Exponentially growing populations of PC12 cells were sub-cultured and used for all experiments.\nImmunocytochemistry: PC12 cells grown on cover-slips were fixed overnight in PBS containing 2% paraformaldehyde at 4° C. Cells were permeabilized by 0.3% Triton X-100, washed in PBS then incubated with primary antibody in PBS containing 0.05% Tween 20 (PBS-T). After washing 3 times in PBS-T, FITC-labeled anti-rabbit IgG (Santa Cruz Biotechnology Inc.) was added. Cells were washed (5 times, for 10 min) with PBS-T and mounted on microscope slides in anti-fade solution (Dako, Inc.). Images of cellular immunofluorescence were acquired using a NIKON Eclipse TE300 scanning microscope.\nFluorescent microscopy and Western blot analysis was undertaken to investigate the extent of 4HNE protein-adduct formation in cultures of PC12 cells in the presence of CLN. Cells were pretreated with CLN or LAH in the presence or absence of 4HNE and then analyzed for the formation of 4HNE-protein adducts."}, "[3]": {"test_system": "4HNE-protein adducts in PC12 cells", "test": "4HNE-protein adduct levels, Western blot analysis", "conditions": "4HNE 25, 12.5, 6.2 nM alone", "protocol": "as §1\nTo confirm the results generated by immunochemistry, Western blot analysis was used to investigate changes in 4HNE-protein adduct levels in cells treated with 4HNE alone or CLN plus 4HNE."}, "[4]": {"test_system": "GSH extrusion from PC12 cells", "test": "Reduced GSH in extracellular fluid (GSH extrusion)", "conditions": "4HNE, relative to CLN- or mock-treated cells", "protocol": "To determine whether the loss of intracellular GSH was due to it's extrusion from the cells or oxidation, the level of reduced GSH in the extra-cellular fluid was evaluated."}, "SH-SY5Y cells [5]": {"test_system": "SH-SY5Y cells", "test": "Protection against retinoic acid toxicity in SH-SY5Y cells, microscopic grading", "conditions": "for DIFFERENTIATION: Retinoic Acid 20 μM (Day 1) alone", "protocol": "(§2) Retinoic Acid was left on the plate for the duration of the experiment or until washed off. Colostrinin was added to the plate at the indicated doses. When added on Day 1, it was present during the entire experiment. When added on Day 5, it was incubated on the plate for 30 minutes at 37° C. and then removed. The wells were washed twice with PBS before adding β-Amyloid. Cultures were then observed under the microscope and graded."}, "SH-SY5Y cells [6]": {"test_system": "SH-SY5Y cells", "test": "Anti-apoptotic activity against β-amyloid toxicity in SH-SY5Y cells, microscopic grading", "conditions": "Beta-amyloid 10 μg/ml added on day 5", "protocol": "as §2, with “To determine whether this was reproducible and to determine the potency of CLN to inhibit retinoic acid toxicity, two concentration of retinoic acid were used to treat cells on day one of the experiment, 20 μM and 40 μM. *Control wells were mock-treated for the duration of the experiment. Retinoic” for “Retinoic”"}}, "note": "Marks after values point to notes of the source that are not given here.", "data": [{"molecule": "CCCCCC(O)/C=C/C=O", "note": "(centres unmarked) [4HNE]", "values": [{"measurement": "loss of GSH", "setting": "[1]; 4HNE 25 nM", "value": "more than 50%"}, {"measurement": "intracellular GSH levels, 4HNE alone", "setting": "[1]; 4HNE alone for 30 min", "value": "significant reduction of intracellular GSH levels"}, {"measurement": "p53 activation, 4HNE alone", "setting": "p53", "value": "induced its activation"}, {"measurement": "JNK phosphorylation, 4HNE alone", "setting": "JNK; 4HNE 25 nM alone", "value": "potent inducer of JNK phosphorylation"}, {"measurement": "toxic effects / induction of apoptosis", "setting": "PC12 cells; 4HNE 25 nM, PC12 cells", "value": "did not show toxic effects or induce apoptosis"}, {"measurement": "apoptosis, 4HNE alone", "setting": "PC12 cells; 4HNE 100 nM", "value": "Induction of apoptosis"}, {"measurement": "4HNE-protein adduct fluorescence, inducer alone", "setting": "[2]", "value": "bright fluorescence"}, {"measurement": "4HNE-protein adduct levels (Western blot), 4HNE alone", "setting": "[3]", "value": "significant increase in levels of 4HNE-protein adducts"}, {"measurement": "OPA-GSH-mediated fluorescence of extracellular fluid", "setting": "[4]", "value": "significant increase in OPA-GSH-mediated fluorescence"}]}, {"molecule": "Nc1ncnc2c1nc(Sc1ccc(Cl)cc1)n2[C@@H]1O[C@@H]2COP(=O)(O)O[C@H]2[C@H]1O", "note": "[8-(4-chlorophenylthio)-cAMP]", "values": [{"measurement": "4HNE-induced JNK phosphorylation", "setting": "JNK; pretreatment with inhibitor of JNK activation", "value": "prevented 4HNE-induced JNK phosphorylation"}]}, {"molecule": "OO", "note": "[H2O2]", "values": [{"measurement": "4HNE-protein adduct fluorescence, inducer alone", "setting": "[2]", "value": "bright fluorescence"}]}, {"molecule": "CC1=C(/C=C/C(C)=C/C=C/C(C)=C/C(=O)O)C(C)(C)CCC1", "note": "[Retinoic Acid]", "values": [{"measurement": "DIFFERENTIATION", "setting": "SH-SY5Y cells [5]; cells observed Day 2", "value": "++++ (Day 2)^b (++++ Approximately 100% of the cells)"}, {"measurement": "DIFFERENTIATION", "setting": "SH-SY5Y cells [5]; cells observed Day 8", "value": "+ (Day 8)^b (+ Approximately 25% of the cells)"}, {"measurement": "onset of toxicity, retinoic acid alone", "setting": "SH-SY5Y cells [5]; retinoic acid 20 μM", "value": "started showing signs of toxicity by day 6"}, {"measurement": "cell morphology, retinoic acid alone (FIG. 6F)", "setting": "SH-SY5Y cells [5]; retinoic acid 20 μM added on day 1", "value": "Toxic (apoptotic) effect"}, {"measurement": "toxicity, retinoic acid alone", "setting": "SH-SY5Y cells [5]; retinoic acid 40 μM", "value": "the toxicity developed too rapidly"}]}, {"molecule": "β-Amyloid", "values": [{"measurement": "cell morphology, Beta-amyloid alone (FIG. 6B)", "setting": "SH-SY5Y cells [6]", "value": "show its toxicity"}]}]}
